From article PMC8710297, “Identification of potent SENP1 inhibitors that inactivate SENP1/JAK2/STAT signaling pathway and overcome platinum drug resistance in ovarian cancer” (Clinical and Translational Medicine, 2021) come the findings set out here.

The target in this assay is T1, SENP1(C603A) (Homo sapiens, UniProt Q9P0U3, C603A).
T1 construct: GST; made in house
T1 sequence (Q9P0U3 1-644 C603A): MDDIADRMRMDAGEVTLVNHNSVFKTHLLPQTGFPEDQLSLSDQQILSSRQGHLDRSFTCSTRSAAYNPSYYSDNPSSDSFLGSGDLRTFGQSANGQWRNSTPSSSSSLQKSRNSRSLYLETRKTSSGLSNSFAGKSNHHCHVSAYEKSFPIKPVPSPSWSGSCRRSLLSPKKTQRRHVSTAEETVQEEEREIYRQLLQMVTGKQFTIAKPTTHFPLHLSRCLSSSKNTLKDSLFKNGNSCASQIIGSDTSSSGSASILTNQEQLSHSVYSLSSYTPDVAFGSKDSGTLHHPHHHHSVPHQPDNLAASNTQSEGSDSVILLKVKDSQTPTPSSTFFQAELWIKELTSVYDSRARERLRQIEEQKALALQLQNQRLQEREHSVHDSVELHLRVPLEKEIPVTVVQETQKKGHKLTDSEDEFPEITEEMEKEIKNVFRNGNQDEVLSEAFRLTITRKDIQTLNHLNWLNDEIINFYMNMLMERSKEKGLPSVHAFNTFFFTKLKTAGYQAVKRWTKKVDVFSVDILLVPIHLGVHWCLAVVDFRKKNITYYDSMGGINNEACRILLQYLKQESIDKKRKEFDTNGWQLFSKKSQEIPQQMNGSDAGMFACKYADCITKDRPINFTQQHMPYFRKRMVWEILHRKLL
The experiment in a line: In vitro thermal shift assay with mutant GST-SENP1(C603A). Format: binding. Conditions: compared to DMSO. The procedure:
FIGURE 2 UA directly interacts with Sentrin‐specific protease 1 (SENP1). (A) Cellular thermal shift assay to examine the interaction of UA with SENP1. IGROV1 CR cells pretreated with MG132 (10 μM, 1 h) were incubated with DMSO or UA for 4 h before being shifted to indicated temperatures. SENP1 stability was analyzed by using Western blot against SENP1 antibody. Right panel, quantification of non‐denatured SENP1 fraction shown in the left panel. (B) Cell‐free thermal shift assay to examine interactions of UA with SENP1. Purified SENP1 proteins were incubated with DMSO or UA for 4 h before being shifted to the indicated temperatures. SENP1 stability was analyzed by using Western blot against SENP1 antibody. Right panel, quantification of non‐denatured SENP1 fraction shown in the left panel. (C) The predicted docking pose of UA (C: green; H: white; O: red) at the hydrophobic catalytic cleft of SENP1 (C: salmon; H: white; O: red; N: blue). Key amino acid residues were highlighted. […] Stability of SENP1(C603A) was analyzed by using Western blot against SENP1 antibody. […] Left; Ultra‐high performance liquid‐chromatography‐MS/MS analyses of associated UA in indicated samples, right; quantification of data shown in left (the binding affinity of UA with SENP1‐C603A was normalized as 1). […]
The qu anti ficatio n of immunohistochemical sta in ing wa s scored blindly at lea st by two independent obser vers. […]

With `CC1(C)CC[C@]2(C(=O)O)CC[C@]3(C)C(=CC[C@@H]4[C@@]5(C)CC[C@H](O[C@@H]6O[C@H](C(=O)O)[C@@H](O)[C@H](O[C@@H]7OC[C@@H](O)[C@H](O)[C@H]7O)[C@H]6O)C(C)(C)[C@@H]5CC[C@]43C)[C@@H]2C1` [Mc, Momordin Ιc], the “thermal stability of purified mutant SENP1(C603A)” value was “not increased”. The same measure for `C[C@H]1[C@H](C)CC[C@]2(C(=O)O)CC[C@]3(C)C(=CC[C@@H]4[C@@]5(C)CC[C@H](O)C(C)(C)[C@@H]5CC[C@]43C)[C@H]12` [UA, ursolic acid, reference compound]: “not increased”.
